In patent US6632809B2, “Gyrase inhibitors and uses thereof” (Vertex Pharmaceuticals Incorporated, priority 2000, dated 2003):
Converted amounts (≈) assume the structure as drawn.

Experiments:
test bacteria = assay: Susceptibility Testing in Liquid Media (MIC assay); assay type: cell-based; conditions: broth dilution, MHB, 35° C. overnight (16 to 20 hr); organism not given; read-out: MIC (minimal inhibitory concentration) activity level
Procedure: Susceptibility Testing in Liquid Media
Compounds of this invention were also tested for antimicrobial activity by susceptibility testing in liquid media. Such assays were performed within the guidelines of the latest NCCLS document governing such practices: “M7-A5 Methods for dilution Antimicrobial Susceptibility Tests for Bacteria that Grow Aerobically; Approved Standard—Fifth Edition (2000)”. Other publications such as “Antibiotics in Laboratory Medicine” (Edited by V. Lorian, Publishers Williams and Wilkins, 1996) provide essential practical techniques in laboratory antibiotic testing. Essentially, several discrete bacterial colonies (3 to 7) from a freshly streaked plate were transferred to an appropriate rich broth medium such as MHB, supplemented where appropriate for the more fastidious organisms. This was grown overnight to high density followed by a 1 or 2-thousand-fold dilution to give an inoculation density of between 5×10^5 and 5×10^6 CFU per mL. Alternatively, the freshly picked colonies can be incubated at 37° C. for about 4 to 8 hrs until the culture equals or exceeds a turbidity of a 0.5 McFarland standard (approximately 1.5×10^8 cells per mL) and diluted to give the same CFU per mL as above. In a more convenient method, the inoculum was prepared using a commercially available mechanical device (the BBL PROMPT System) that involves touching five colonies directly with a wand, containing crosshatch grooves at its bottom, followed by suspension of the bacteria in an appropriate volume of saline. Dilution to the appropriate inoculum cell density was made from this cell suspension. The broth used for testing consists of MHB supplemented with 50 mg per L of Ca^2+ and 25 mg per L of Mg^2+. Standard dilution panels of control antibiotics were made and stored as in the NCCLS standard M7-A5, the dilution range typically being in the 128 μg per mL to 0.015 μg per mL (by 2-fold serial dilution). The test compounds were dissolved and diluted fresh for experimentation on the same day; the same or similar ranges of concentration as above being used. The test compounds and controls were dispensed into a multiwell plate and test bacteria added such that the final inoculation was approximately 5×10^4 CFU per well and the final volume was 100 μL. The plates were incubated at 35° C. overnight (16 to 20 hr) and checked by eye for turbidity or quantitated with a multiwell plate reader. […] Such determinations were also compared to the appropriate tables contained in the above two publications to ensure that the range of antibacterial activity is within the acceptable range for this standardized assay.
The compound numbers correspond to the compound numbers in Table 1.

[1] = molecular target: DNA gyrase (374 kDa Gyr A2B2 subunit from Staphylococcus aureus) (Staphylococcus aureus, UniProt P0A0K8); assay: Gyrase ATPase Assay; assay type: biochemical; conditions: 10 μM concentration; ATPase assay at 30° C., 0.9 mM ATP; average of duplicate values; read-out: Gyrase Inhibitory Activity (percent inhibition)
Chain of DNA gyrase (374 kDa Gyr A2B2 subunit from Staphylococcus aureus) (P0A0K8 whole entry): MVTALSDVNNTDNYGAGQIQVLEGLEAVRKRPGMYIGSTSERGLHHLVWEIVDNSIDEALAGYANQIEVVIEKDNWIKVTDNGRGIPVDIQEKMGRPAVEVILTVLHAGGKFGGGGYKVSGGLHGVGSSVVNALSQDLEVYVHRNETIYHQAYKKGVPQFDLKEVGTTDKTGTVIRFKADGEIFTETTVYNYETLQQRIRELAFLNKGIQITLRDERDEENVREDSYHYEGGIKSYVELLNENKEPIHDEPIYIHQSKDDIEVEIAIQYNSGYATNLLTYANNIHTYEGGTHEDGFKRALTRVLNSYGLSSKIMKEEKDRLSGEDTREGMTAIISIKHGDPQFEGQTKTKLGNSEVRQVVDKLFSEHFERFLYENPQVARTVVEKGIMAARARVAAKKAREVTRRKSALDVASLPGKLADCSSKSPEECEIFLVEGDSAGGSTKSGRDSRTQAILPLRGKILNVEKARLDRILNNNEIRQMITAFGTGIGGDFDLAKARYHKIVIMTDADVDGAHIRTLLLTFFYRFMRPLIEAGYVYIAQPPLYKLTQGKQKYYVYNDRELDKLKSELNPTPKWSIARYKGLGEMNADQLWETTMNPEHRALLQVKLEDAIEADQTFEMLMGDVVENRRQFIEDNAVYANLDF
Chain of DNA gyrase (374 kDa Gyr A2B2 subunit from Staphylococcus aureus) (P20831 whole entry, further chain): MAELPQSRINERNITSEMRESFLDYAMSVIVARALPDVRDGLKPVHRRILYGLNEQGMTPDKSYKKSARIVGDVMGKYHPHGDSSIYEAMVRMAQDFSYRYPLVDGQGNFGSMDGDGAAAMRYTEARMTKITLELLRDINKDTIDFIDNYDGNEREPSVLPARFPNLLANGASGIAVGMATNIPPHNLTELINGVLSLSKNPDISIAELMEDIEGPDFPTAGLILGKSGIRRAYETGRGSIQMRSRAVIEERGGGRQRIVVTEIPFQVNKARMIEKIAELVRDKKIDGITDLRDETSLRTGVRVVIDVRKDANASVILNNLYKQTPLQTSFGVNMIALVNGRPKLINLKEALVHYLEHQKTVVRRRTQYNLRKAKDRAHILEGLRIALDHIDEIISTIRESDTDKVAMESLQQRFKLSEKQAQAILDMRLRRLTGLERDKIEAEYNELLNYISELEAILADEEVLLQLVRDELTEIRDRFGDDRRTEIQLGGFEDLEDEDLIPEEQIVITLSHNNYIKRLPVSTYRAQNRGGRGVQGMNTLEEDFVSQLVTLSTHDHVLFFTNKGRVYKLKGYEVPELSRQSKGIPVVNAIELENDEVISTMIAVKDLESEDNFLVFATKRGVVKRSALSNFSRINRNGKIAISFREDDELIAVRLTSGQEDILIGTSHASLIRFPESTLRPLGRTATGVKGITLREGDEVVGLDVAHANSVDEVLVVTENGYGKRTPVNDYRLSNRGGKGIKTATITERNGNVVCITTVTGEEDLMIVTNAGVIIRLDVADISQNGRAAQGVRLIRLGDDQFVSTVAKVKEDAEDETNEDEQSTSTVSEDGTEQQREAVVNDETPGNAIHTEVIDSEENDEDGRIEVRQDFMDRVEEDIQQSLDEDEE
Summary of the method: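 S. aureus GyrA2B2 (40 nM) was preincubated 10 min at 30 °C with inhibitor (4% DMSO final) in 100 mM Tris pH 7.6, 1.5 mM MgCl2, 50 mM KCl. Reactions were started with 0.9 mM ATP, and ADP formation was followed via PK/LDH-coupled NADH loss at 340 nm over 10 min. Percent inhibition is the mean of duplicates.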

SMILES	MIC (test bacteria) [µg/mL]	inhibition at 10 µM [1] [%]
CCNC(=O)Nc1nc2cc(-n3cnc(C(=O)NCc4cccnc4)c3)ccc2[nH]1 [Ia-171]	10 to 40 (≈ 24.7 to 98.9 µM)	> 75
CCNC(=O)Nc1nc2cc(-n3cc(C(=O)NCC(C)C)cn3)ccc2[nH]1 [Ia-173]	10 to 40 (≈ 27.1 to 108 µM)	> 75
CCNC(=O)Nc1nc2cc(-n3cc(C(=O)NCc4cccnc4)cn3)ccc2[nH]1 [Ia-174]	> 40	> 75
CCNC(=O)Nc1nc2cc(-c3ccc(N4CCCCC4)nc3)ccc2[nH]1 [Ia-175]	> 40	> 75
CCNC(=O)Nc1nc2cc(-c3ccc(N4CCCC4)nc3)ccc2[nH]1 [Ia-177]	> 40	> 75
CCNC(=O)Nc1nc2cc(-c3cccnc3)c(N3CCCCC3)cc2[nH]1 [Ia-178]	< 10	> 75
CCNC(=O)Nc1nc2cc(-c3ccc(N4CCC(O)C4)nc3)ccc2[nH]1 (centres unmarked) [Ia-179]	> 40	> 75
CCNC(=O)Nc1nc2cc(-c3cccnc3)c(N3CCCC3)cc2[nH]1 [Ia-180]	10 to 40 (≈ 28.5 to 114 µM)	> 75
CCNC(=O)Nc1nc2cc(-c3occc(=O)c3O)ccc2[nH]1 [Ia-181]	> 40	50 to 75
C=CCCCOc1ccc(-c2ccc3[nH]c(NC(=O)NCC)nc3c2)cn1 [Ia-182]	> 40	> 75
CCNC(=O)Nc1nc2cc(-c3cccnc3)c(OC)c(F)c2[nH]1 [Ia-183]	> 40	50 to 75
CCNC(=O)Nc1nc2nc(-n3cnc(C(=O)OC)c3)ccc2[nH]1 [Ia-184]	> 40	50 to 75
CCNC(=O)Nc1nc2nc(-n3cnc(C(=O)O)c3)ccc2[nH]1 [Ia-185]	> 40	> 75
CCCCNC(=O)c1cn(-c2ccc3[nH]c(NC(=O)NCC)nc3c2)cn1 [Ia-186]	< 10	> 75
CCNC(=O)Nc1nc2nc(-n3cnc(C(=O)NC4CC4)c3)ccc2[nH]1 [Ia-187]	10 to 40 (≈ 28.2 to 113 µM)	> 75
C=CCNC(=O)c1cn(-c2ccc3[nH]c(NC(=O)NCC)nc3c2)cn1 [Ia-188]	< 10	> 75
